Results from PubChem BioAssay (NCI).
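Where inhibition never reached the appropriate level, the endpoint shown equals the highest concentration tested. Otherwise, values were interpolated linearly from a five-concentration, 48-hour dose response in 96-well plates. TGI: total growth inhibition.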

What follows are compounds tested on HOP-62 NSCLC (assay: DTP human tumour cell line panel, 48 h).

Point of comparison: `Cc1ccc(/C(O)=C/c2nc3ccccc3[nH]c2=O)cc1`, TGI 5.16 µM. Against it:
- CC(=O)Oc1ccc2c3c1[C@H]1O[C@H]1c1cccc(c1-3)[C@@H]1O[C@H]21 — 3.4-fold higher, 17.5 µM
- COc1ccc2c(c1)CCc1cc(C(N)=O)c3nnnn3c1-2 — higher, > 100 µM
- O=C(O)C1Cc2c([nH]c3ccccc23)C(CCCCO)N1 (stereo not given) — higher, > 100 µM
- Cc1cc(Cc2c(C)c(C)c(Cc3cc(C)cc(C(C)(C)C)c3O)c(C)c2C)c(O)c(C(C)(C)C)c1 — higher, > 100 µM

Each compound was assayed on U251 CNS (assay: DTP human tumour cell line panel, 48 h).

Point of comparison: `Cc1ccc(/C(O)=C/c2nc3ccccc3[nH]c2=O)cc1`, TGI 22.6 µM. Against it:
- CC(=O)Oc1ccc2c3c1[C@H]1O[C@H]1c1cccc(c1-3)[C@@H]1O[C@H]21 — within 1.5-fold, 18.9 µM
- COc1ccc2c(c1)CCc1cc(C(N)=O)c3nnnn3c1-2 — higher, > 67.4 µM
- O=C(O)C1Cc2c([nH]c3ccccc23)C(CCCCO)N1 (stereo not given) — higher, > 100 µM
- Cc1cc(Cc2c(C)c(C)c(Cc3cc(C)cc(C(C)(C)C)c3O)c(C)c2C)c(O)c(C(C)(C)C)c1 — higher, > 100 µM

Each compound was assayed on NCI/ADR-RES ovarian (assay: DTP human tumour cell line panel, 48 h).

Point of comparison: `CC(=O)Oc1ccc2c3c1[C@H]1O[C@H]1c1cccc(c1-3)[C@@H]1O[C@H]21`, TGI 43.5 µM. Against it:
- Cc1ccc(/C(O)=C/c2nc3ccccc3[nH]c2=O)cc1 — 1.9-fold lower, 23 µM
- COc1ccc2c(c1)CCc1cc(C(N)=O)c3nnnn3c1-2 — higher, > 100 µM
- O=C(O)C1Cc2c([nH]c3ccccc23)C(CCCCO)N1 (stereo not given) — higher, > 100 µM
- Cc1cc(Cc2c(C)c(C)c(Cc3cc(C)cc(C(C)(C)C)c3O)c(C)c2C)c(O)c(C(C)(C)C)c1 — higher, > 100 µM

These compounds were tested on RPMI-8226 leukemia (assay: DTP human tumour cell line panel, 48 h).

Point of comparison: `Cc1ccc(/C(O)=C/c2nc3ccccc3[nH]c2=O)cc1`, TGI 47.5 µM. Against it:
- CC(=O)Oc1ccc2c3c1[C@H]1O[C@H]1c1cccc(c1-3)[C@@H]1O[C@H]21 — higher, > 100 µM
- COc1ccc2c(c1)CCc1cc(C(N)=O)c3nnnn3c1-2 — higher, > 100 µM
- O=C(O)C1Cc2c([nH]c3ccccc23)C(CCCCO)N1 (stereo not given) — higher, > 100 µM
- Cc1cc(Cc2c(C)c(C)c(Cc3cc(C)cc(C(C)(C)C)c3O)c(C)c2C)c(O)c(C(C)(C)C)c1 — higher, > 100 µM

Each compound was assayed on A549 NSCLC (assay: DTP human tumour cell line panel, 48 h).

Point of comparison: `CC(=O)Oc1ccc2c3c1[C@H]1O[C@H]1c1cccc(c1-3)[C@@H]1O[C@H]21`, TGI 22.1 µM. Against it:
- Cc1ccc(/C(O)=C/c2nc3ccccc3[nH]c2=O)cc1 — within 1.5-fold, 19.6 µM
- COc1ccc2c(c1)CCc1cc(C(N)=O)c3nnnn3c1-2 — higher, > 100 µM
- O=C(O)C1Cc2c([nH]c3ccccc23)C(CCCCO)N1 (stereo not given) — higher, > 100 µM
- Cc1cc(Cc2c(C)c(C)c(Cc3cc(C)cc(C(C)(C)C)c3O)c(C)c2C)c(O)c(C(C)(C)C)c1 — higher, > 100 µM

Each compound was assayed on SN12C renal (assay: DTP human tumour cell line panel, 48 h).

Point of comparison: `CC(=O)Oc1ccc2c3c1[C@H]1O[C@H]1c1cccc(c1-3)[C@@H]1O[C@H]21`, TGI 7.55 µM. Against it:
- Cc1ccc(/C(O)=C/c2nc3ccccc3[nH]c2=O)cc1 — 4.5-fold higher, 34 µM
- COc1ccc2c(c1)CCc1cc(C(N)=O)c3nnnn3c1-2 — higher, > 100 µM
- O=C(O)C1Cc2c([nH]c3ccccc23)C(CCCCO)N1 (stereo not given) — higher, > 100 µM
- Cc1cc(Cc2c(C)c(C)c(Cc3cc(C)cc(C(C)(C)C)c3O)c(C)c2C)c(O)c(C(C)(C)C)c1 — higher, > 100 µM

The compounds below were run on MCF7 breast (assay: DTP human tumour cell line panel, 48 h).

`CC(=O)Oc1ccc2c3c1[C@H]1O[C@H]1c1cccc(c1-3)[C@@H]1O[C@H]21` and `Cc1ccc(/C(O)=C/c2nc3ccccc3[nH]c2=O)cc1` cannot be ordered by TGI: over 100 µM for the first, over 100 µM for the second.

`COc1ccc2c(c1)CCc1cc(C(N)=O)c3nnnn3c1-2` and `O=C(O)C1Cc2c([nH]c3ccccc23)C(CCCCO)N1` (stereo not given) cannot be ordered by TGI: over 100 µM for the first, over 100 µM for the second.

With `Cc1cc(Cc2c(C)c(C)c(Cc3cc(C)cc(C(C)(C)C)c3O)c(C)c2C)c(O)c(C(C)(C)C)c1` the TGI was over 100 µM.

Each compound was assayed on RXF 393 renal (assay: DTP human tumour cell line panel, 48 h).

Point of comparison: `CC(=O)Oc1ccc2c3c1[C@H]1O[C@H]1c1cccc(c1-3)[C@@H]1O[C@H]21`, TGI 6.84 µM. Against it:
- Cc1ccc(/C(O)=C/c2nc3ccccc3[nH]c2=O)cc1 — within 1.5-fold, 7.1 µM
- COc1ccc2c(c1)CCc1cc(C(N)=O)c3nnnn3c1-2 — 9.2-fold higher, 63 µM
- O=C(O)C1Cc2c([nH]c3ccccc23)C(CCCCO)N1 (stereo not given) — higher, > 100 µM
- Cc1cc(Cc2c(C)c(C)c(Cc3cc(C)cc(C(C)(C)C)c3O)c(C)c2C)c(O)c(C(C)(C)C)c1 — higher, > 100 µM

These compounds were tested on HT29 colon (assay: DTP human tumour cell line panel, 48 h).

Point of comparison: `Cc1ccc(/C(O)=C/c2nc3ccccc3[nH]c2=O)cc1`, TGI 67.2 µM. Against it:
- CC(=O)Oc1ccc2c3c1[C@H]1O[C@H]1c1cccc(c1-3)[C@@H]1O[C@H]21 — within 1.5-fold, 47.4 µM
- COc1ccc2c(c1)CCc1cc(C(N)=O)c3nnnn3c1-2 — higher, > 100 µM
- O=C(O)C1Cc2c([nH]c3ccccc23)C(CCCCO)N1 (stereo not given) — higher, > 100 µM
- Cc1cc(Cc2c(C)c(C)c(Cc3cc(C)cc(C(C)(C)C)c3O)c(C)c2C)c(O)c(C(C)(C)C)c1 — higher, > 100 µM

The compounds below were run on MOLT-4 leukemia (assay: DTP human tumour cell line panel, 48 h).

`CC(=O)Oc1ccc2c3c1[C@H]1O[C@H]1c1cccc(c1-3)[C@@H]1O[C@H]21` and `Cc1ccc(/C(O)=C/c2nc3ccccc3[nH]c2=O)cc1` cannot be ordered by TGI: over 100 µM for the first, over 100 µM for the second.

`COc1ccc2c(c1)CCc1cc(C(N)=O)c3nnnn3c1-2` and `O=C(O)C1Cc2c([nH]c3ccccc23)C(CCCCO)N1` (stereo not given) cannot be ordered by TGI: over 76.9 µM for the first, over 100 µM for the second.

`Cc1cc(Cc2c(C)c(C)c(Cc3cc(C)cc(C(C)(C)C)c3O)c(C)c2C)c(O)c(C(C)(C)C)c1` showed a TGI of over 100 µM.

Each compound was assayed on MDA-N (assay: DTP human tumour cell line panel, 48 h).

Point of comparison: `CC(=O)Oc1ccc2c3c1[C@H]1O[C@H]1c1cccc(c1-3)[C@@H]1O[C@H]21`, TGI 20.9 µM. Against it:
- Cc1ccc(/C(O)=C/c2nc3ccccc3[nH]c2=O)cc1 — higher, > 100 µM
- COc1ccc2c(c1)CCc1cc(C(N)=O)c3nnnn3c1-2 — higher, > 100 µM
- O=C(O)C1Cc2c([nH]c3ccccc23)C(CCCCO)N1 (stereo not given) — higher, > 100 µM
- Cc1cc(Cc2c(C)c(C)c(Cc3cc(C)cc(C(C)(C)C)c3O)c(C)c2C)c(O)c(C(C)(C)C)c1 — higher, > 100 µM

The compounds below were run on NCI-H522 lung (assay: DTP human tumour cell line panel, 48 h).

Point of comparison: `CC(=O)Oc1ccc2c3c1[C@H]1O[C@H]1c1cccc(c1-3)[C@@H]1O[C@H]21`, TGI 4.51 µM. Against it:
- Cc1ccc(/C(O)=C/c2nc3ccccc3[nH]c2=O)cc1 — within 1.5-fold, 6.59 µM
- COc1ccc2c(c1)CCc1cc(C(N)=O)c3nnnn3c1-2 — higher, > 100 µM
- O=C(O)C1Cc2c([nH]c3ccccc23)C(CCCCO)N1 (stereo not given) — higher, > 100 µM
- Cc1cc(Cc2c(C)c(C)c(Cc3cc(C)cc(C(C)(C)C)c3O)c(C)c2C)c(O)c(C(C)(C)C)c1 — higher, > 100 µM

Each compound was assayed on A498 renal (assay: DTP human tumour cell line panel, 48 h).

Point of comparison: `CC(=O)Oc1ccc2c3c1[C@H]1O[C@H]1c1cccc(c1-3)[C@@H]1O[C@H]21`, TGI 33.8 µM. Against it:
- Cc1ccc(/C(O)=C/c2nc3ccccc3[nH]c2=O)cc1 — 1.7-fold higher, 58.2 µM
- COc1ccc2c(c1)CCc1cc(C(N)=O)c3nnnn3c1-2 — 1.8-fold higher, 62.2 µM
- O=C(O)C1Cc2c([nH]c3ccccc23)C(CCCCO)N1 (stereo not given) — higher, > 100 µM
- Cc1cc(Cc2c(C)c(C)c(Cc3cc(C)cc(C(C)(C)C)c3O)c(C)c2C)c(O)c(C(C)(C)C)c1 — higher, > 100 µM

The compounds below were run on SK-MEL-2 melanoma (assay: DTP human tumour cell line panel, 48 h).

Point of comparison: `Cc1ccc(/C(O)=C/c2nc3ccccc3[nH]c2=O)cc1`, TGI 17.6 µM. Against it:
- CC(=O)Oc1ccc2c3c1[C@H]1O[C@H]1c1cccc(c1-3)[C@@H]1O[C@H]21 — 2.2-fold higher, 39.6 µM
- COc1ccc2c(c1)CCc1cc(C(N)=O)c3nnnn3c1-2 — higher, > 75.5 µM
- O=C(O)C1Cc2c([nH]c3ccccc23)C(CCCCO)N1 (stereo not given) — higher, > 100 µM
- Cc1cc(Cc2c(C)c(C)c(Cc3cc(C)cc(C(C)(C)C)c3O)c(C)c2C)c(O)c(C(C)(C)C)c1 — higher, > 100 µM
